Read-outs that look alike come from different tables or passages of the source.
Key:
[1] = system: Staphylococcus aureus 43300 (MRSA); test: antibacterial study in vivo, survival of infected kunming mice; conditions: for Survival days: 30 days of observation
[2] = system: Oral Candida; test: microbe, parasite or virus in culture; type: cell-based; conditions: Candida
[3] = system: Streptococcus pneumoniae M2; test: microbe, parasite or virus in culture; type: cell-based; conditions: Streptococcus pneumoniae, M2; 37° C., 24 hours; read-out: MIC values of in vitro antibacterial test results
[4] = system: Staphylococcus aureus 43300(MRSA); test: microbe, parasite or virus in culture; type: cell-based; conditions: Staphylococcus aureus, MRSA, 24 h, read-out: MIC values of in vitro antibacterial test results
[5] = system: Clostridium perfringens; test: microbe, parasite or virus in culture; type: cell-based; conditions: Clostridium perfringens, 24 h, read-out: MIC values of in vitro antibacterial test results
[6] = system: Staphylococcus aureus 29231; test: microbe, parasite or virus in culture; type: cell-based; conditions: Staphylococcus aureus, 29231; 37° C., 24 hours; read-out: MIC values of in vitro antibacterial test results
[7] = system: Streptococcus pneumoniae 6303 (PRSP); test: microbe, parasite or virus in culture; type: cell-based; conditions: Streptococcus pneumoniae, PRSP, 24 h, read-out: MIC values of in vitro antibacterial test results
[8] = system: Staphylococcus aureus 703(MRSA); test: microbe, parasite or virus in culture; type: cell-based; conditions: Staphylococcus aureus, MRSA, 24 h, read-out: MIC values of in vitro antibacterial test results
[9] = system: Streptococcus agalactia B group; test: microbe, parasite or virus in culture; type: cell-based; conditions: Streptococcus; 37° C., 24 hours; read-out: MIC values of in vitro antibacterial test results
[10] = system: Streptococcus pneumoniae 10351; test: microbe, parasite or virus in culture; type: cell-based; conditions: Streptococcus pneumoniae, 10351; 37° C., 24 hours; read-out: MIC values of in vitro antibacterial test results
[11] = system: Bacillus subtilis 168; test: microbe, parasite or virus in culture; type: cell-based; conditions: Bacillus subtilis, 168; 37° C., 24 hours; read-out: MIC values of in vitro antibacterial test results
[12] = system: Enterococcus faecalis 29212; test: microbe, parasite or virus in culture; type: cell-based; conditions: Enterococcus faecalis, 29212; 37° C., 24 hours; read-out: MIC values of in vitro antibacterial test results
[13] = system: Peel fungus; test: organism not typed; type: cell-based; conditions: 37° C., 24 hours; read-out: MIC values of in vitro antibacterial test results
[14] = system: Enterococcus faecalis F2518(VRE); test: microbe, parasite or virus in culture; type: cell-based; conditions: Enterococcus faecalis, VRE, 24 h, read-out: MIC values of in vitro antibacterial test results
[15] = system: Bacillus cereus 2; test: microbe, parasite or virus in culture; type: cell-based; conditions: Bacillus cereus, 2; 37° C., 24 hours; read-out: MIC values of in vitro antibacterial test results
[16] = system: Diphtheria bacilli; test: organism not typed; type: cell-based; conditions: 37° C., 24 hours; read-out: MIC values of in vitro antibacterial test results
[17] = system: Bacillus anthracis Bacillus 1; test: microbe, parasite or virus in culture; type: cell-based; conditions: Bacillus anthracis, 24 h, read-out: MIC values of in vitro antibacterial test results
[18] = system: F2518(VRE), Staphylococcus aureus resistant strain 43300(MRSA), 703 (MRSA), pneumococcal resistance bacteria 6303(PRSP); test: microbe, parasite or virus in culture; type: cell-based; conditions: read-out: MIC values (μM)
[19] = 37° C., 24 hours, read-out: MIC values of in vitro antibacterial test results

Row | Compound | MIC ([2]; read-out: MIC values (μM)) | MIC [2, 19] | MIC [3] | MIC [4] | MIC [5] | MIC [6] | MIC [7] | MIC [8] | MIC [9] | MIC [10] | MIC [11] | MIC [12] | MIC [13] | MIC [14] | MIC [15] | MIC [16] | MIC [17] | MIC [18] | other results
1 | O=C(O)c1cn(C2CC2)c2cc(N3CCNCC3)c(F)cc2c1=O [Ciprofloxacin, reference compound] | – | – | – | – | – | – | – | – | – | – | – | – | – | – | – | – | – | – | Survival days ([1]; dosage 20 mg/kg): 3.4 days; Life extension rate (%) ([1]; dosage 20 mg/kg, versus blank group): 161.5%
2 | Cc1nn2c([O-])cc(-c3ccc(N(C)C)cc3)nc2c1-c1ccc(F)cc1F.[Na+] [Compound 5, Sodium 3-(2,4-difluorophenyl)-5-(4-(dimethylamino)phenyl)-2-methylpyrazolo[1,5-α]pyrimidin-7-olate] | < 100 µg/mL | < 100 µg/mL | < 100 µg/mL | < 150 µg/mL | > 150 µg/mL | > 150 µg/mL | > 150 µg/mL | < 150 µg/mL | > 150 µg/mL | > 150 µg/mL | > 150 µg/mL | < 150 µg/mL | < 150 µg/mL | < 150 µg/mL | < 150 µg/mL | > 150 µg/mL | > 150 µg/mL | – | Survival days ([1]; dosage 30 mg/kg): 2.6 days
3 | Cc1nn2c([O-])cc(-c3ccc(Oc4ccccc4)nc3)nc2c1-c1ccc(F)cc1F.[Na+] [Compound 30, Sodium 3-(2,4-difluorophenyl)-2-methyl-5-(6-phenoxypyridin-3-yl)pyrazolo[1,5-α]pyrimidin-7-olate] | < 100 µg/mL | < 100 µg/mL | < 100 µg/mL | < 100 µg/mL | > 150 µg/mL | > 150 µg/mL | > 150 µg/mL | < 150 µg/mL | > 150 µg/mL | > 150 µg/mL | > 150 µg/mL | < 150 µg/mL | < 150 µg/mL | < 150 µg/mL | < 150 µg/mL | > 150 µg/mL | > 150 µg/mL | < 100 µg/mL | Survival days ([1]; dosage 30 mg/kg): 2.4 days
4 | CC(=O)Oc1ccc(-c2cc([O-])n3nc(C)c(-c4ccc(F)cc4F)c3n2)cn1.[Na+] [Compound 33, Sodium 5-(6-acetoxypyridin-3-yl)-3-(2,4-difluorophenyl)-2-methylpyrazolo[1,5-α]pyrimidin-7-olate] | < 100 µg/mL | < 150 µg/mL | < 100 µg/mL | < 100 µg/mL | > 150 µg/mL | > 150 µg/mL | > 150 µg/mL | < 150 µg/mL | > 150 µg/mL | > 150 µg/mL | > 150 µg/mL | < 100 µg/mL | < 150 µg/mL | < 150 µg/mL | < 100 µg/mL | > 150 µg/mL | > 150 µg/mL | < 100 µg/mL | –
5 | Cc1nn2c([O-])cc(-c3ccc(F)cc3F)nc2c1-c1ccc(F)cc1F.[Na+] [Compound 12, Sodium 3,5-bis(2,4-difluorophenyl)-2-methylpyrazolo[1,5-α]pyrimidin-7-olate] | – | < 150 µg/mL | < 150 µg/mL | < 150 µg/mL | > 150 µg/mL | > 150 µg/mL | > 150 µg/mL | < 150 µg/mL | > 150 µg/mL | > 150 µg/mL | > 150 µg/mL | < 150 µg/mL | < 150 µg/mL | < 150 µg/mL | < 100 µg/mL | > 150 µg/mL | > 150 µg/mL | < 100 µg/mL | –
6 | CC(=O)Oc1ccc(-c2cc([O-])n3nc(C)c(-c4ccc(F)cc4F)c3n2)cc1.[Na+] [Compound 13, Sodium 5-(4-acetoxyphenyl)-3-(2,4-difluorophenyl)-2-methylpyrazolo[1,5-α]pyrimidin-7-olate] | < 100 µg/mL | < 100 µg/mL | < 100 µg/mL | < 100 µg/mL | > 150 µg/mL | > 150 µg/mL | > 150 µg/mL | < 150 µg/mL | > 150 µg/mL | > 150 µg/mL | > 150 µg/mL | < 150 µg/mL | < 150 µg/mL | < 150 µg/mL | < 150 µg/mL | > 150 µg/mL | > 150 µg/mL | < 100 µg/mL | –
7 | COc1ccc(-c2cc([O-])n3nc(C)c(-c4ccc(F)cc4F)c3n2)cn1.[Na+] [Compound 17, sodium 3-(2,4-difluorophenyl)-5-(6-methoxypyridin-3-yl)-2-methylpyrazolo[1,5-α]pyrimidin-7-olate] | < 100 µg/mL | < 100 µg/mL | < 100 µg/mL | < 100 µg/mL | > 150 µg/mL | > 150 µg/mL | > 150 µg/mL | < 150 µg/mL | > 150 µg/mL | > 150 µg/mL | > 150 µg/mL | < 150 µg/mL | < 150 µg/mL | < 150 µg/mL | < 150 µg/mL | > 150 µg/mL | > 150 µg/mL | < 100 µg/mL | –
8 | Cc1nn2c([O-])cc(-c3ccc(N(C)C)nc3)nc2c1-c1ccc(F)cc1F.[Na+] [Compound 18, Sodium 3-(2,4-difluorophenyl)-5-(6-(dimethylamino)pyridin-3-yl)-2-methylpyrazolo[1,5-α]pyrimidin-7-olate] | – | > 150 µg/mL | < 100 µg/mL | < 100 µg/mL | > 150 µg/mL | > 150 µg/mL | > 150 µg/mL | < 150 µg/mL | > 150 µg/mL | > 150 µg/mL | > 150 µg/mL | < 150 µg/mL | < 150 µg/mL | < 150 µg/mL | < 100 µg/mL | > 150 µg/mL | > 150 µg/mL | < 100 µg/mL | –
9 | Cc1nn2c([O-])cc(-c3ccc([N+](=O)[O-])cc3)nc2c1-c1ccc(F)cc1F.[K+] [Compound 23, Potassium 3-(2,4-difluorophenyl)-2-methyl-5-(4-nitrophenyl)pyrazolo[1,5-α]pyrimidin-7-olate] | < 100 µg/mL | < 100 µg/mL | < 100 µg/mL | < 100 µg/mL | > 150 µg/mL | > 150 µg/mL | > 150 µg/mL | < 150 µg/mL | > 150 µg/mL | > 150 µg/mL | > 150 µg/mL | < 150 µg/mL | < 150 µg/mL | < 150 µg/mL | < 100 µg/mL | > 150 µg/mL | > 150 µg/mL | < 100 µg/mL | –
10 | Cc1nn2c([O-])cc(-c3ccc(C(=O)NCCN(C)C)cc3)nc2c1-c1ccc(F)cc1F.[Na+] [Compound 31, Sodium 3-(2,4-difluorophenyl)-5-(4-((2-(dimethylamino)ethyl)carbamoyl)phenyl)-2-methylpyrazolo[1,5-α]pyrimidin-7-olate] | < 100 µg/mL | < 100 µg/mL | < 100 µg/mL | < 150 µg/mL | > 150 µg/mL | < 100 µg/mL | < 100 µg/mL | < 100 µg/mL | > 150 µg/mL | < 100 µg/mL | < 100 µg/mL | < 100 µg/mL | > 150 µg/mL | < 150 µg/mL | < 100 µg/mL | > 150 µg/mL | > 150 µg/mL | < 100 µg/mL | –
11 | Cc1nn2c([O-])cc(-c3ccc(C(=O)[O-])nc3)nc2c1-c1ccc(F)cc1F.[Na+].[Na+] [Compound 21, Disodium 5-(3-(2,4-difluorophenyl)-2-methyl-7-hydroxypyrazolo[1,5-α]pyrimidin-5-yl)picolinate] | < 100 µg/mL | < 100 µg/mL | < 100 µg/mL | < 100 µg/mL | > 150 µg/mL | > 150 µg/mL | > 150 µg/mL | < 150 µg/mL | > 150 µg/mL | > 150 µg/mL | > 150 µg/mL | < 150 µg/mL | < 150 µg/mL | < 150 µg/mL | < 150 µg/mL | > 150 µg/mL | > 150 µg/mL | < 100 µg/mL | –
12 | Cc1nn2c([O-])cc(-c3ccc(S(N)(=O)=O)cc3)nc2c1-c1ccc(F)cc1F.[K+] [Compound 25, Potassium 3-(2,4-difluorophenyl)-2-methyl-5-(4-sulfamoylphenyl)pyrazolo[1,5-α]pyrimidin-7-olate] | < 100 µg/mL | < 100 µg/mL | < 100 µg/mL | < 150 µg/mL | > 150 µg/mL | > 150 µg/mL | > 150 µg/mL | < 150 µg/mL | > 150 µg/mL | > 150 µg/mL | > 150 µg/mL | < 150 µg/mL | < 150 µg/mL | < 150 µg/mL | < 150 µg/mL | > 150 µg/mL | > 150 µg/mL | < 100 µg/mL | –

Reference: patent US20210094954A1, “PREPARATION METHODS AND APPLICATIONS OF 3,5-DISUBSTITUTED METHYLPYRAZOLO[1,5-A]PYRIMIDINE-7-HYDROXYLIC SALTS” (priority 2019, published 2021)
